Assay results as given in patent publication US20080081039A1, “Inorganic Selenium For Treatment Of Cancer” (priority 2004, published 2008).
Values joined by “and” are separate entries in the source; they are usually repeats but may differ in a detail not shown here. Identical values can stand only once. Like-named read-outs stand apart in the source and are kept apart here.

What was measured:
Akt = assay: Activation of Akt by different selenium compounds in PC-3 cells, immunoblot; format: cell-based, human; conditions: serum starved PC-3 cells
Text: Signal intensities from the developed films were scanned and intensities of active Akt correlated to total Akt levels were plotted.

PC-3 cells [1] = assay: MTT growth assay; format: cell-based, human
Protocol: MTT Growth Assays involved plating 1×10^3 PC-3 cells per well in a 96 well plate and allowing the cells to attach overnight. […] The controls for this experiment received an equal volume of LY294002 diluent (DMSO). MTT growth assays were then performed according to the manufacturer's protocol (Sigma).

[2] = test system: androgen sensitive LNCaP cells; conditions: for androgen sensitive NS LNCaP cell proliferation: 5 μM, 9 days
Protocol: Cells were harvested at 72 hours following addition of the compounds and cell counts of viable cells as assessed by Trypan Blue staining were determined.
Cells were harvested at the indicated periods following addition of the compounds and cell counts of viable cells as assessed by Trypan Blue staining were determined.
(§1) The parental androgen-sensitive LNCaP cell line was obtained from the American Type Culture Collection (Manassas, Va., USA) and routinely cultured in […] (Invitrogen) supplemented with 10% foetal calf serum and 1% antibiotic/antimycotic mixture (Invitrogen). Cells were maintained at 37° C. in 5% CO2. To select androgen independent LNCaP cells LNCaPs were cultured in […] (Invitrogen) in 5% Charcoal stripped serum (CSS) (Invitrogen) which has removed all detectable traces of testosterone, for 6-8 weeks and obtained LNCaP cell lines which were now able to freely proliferate in the absence of testosterone. These cells are referred to as CSS LNCaPs.
(§2) Between 5×10^4 (FIGS. 1-2) and 1×10^5 LNCaP, CSS LNCaP or Q293 cells were allowed to attach overnight. […] Supernatants and cells were then harvested, combined and viable cells assessed by Trypan Blue exclusion assay. Experiments were performed in triplicate.

GFP-FKHR fusion protein = assay: GFP-FKHR cellular localization in transfected PC-3 cells; format: cell-based, human; conditions: LY294002 50 μM 1 hour; sodium selenate or selenomethionine 0.5 mM 3 hours
Protocol: The day before transfection, 5×10^5 PC-3 cells were seeded in 24-well dishes and transiently transfected with 0.8 μg of pcDNA3-GFP-FKHRwt construct (kind gift Dr Bill Sellers, Dana-Farber Institute, Boston) using Lipofectamine 2000 (Invitrogen). Cells were permeabilized in 0.2% Triton X-100 and the nuclear contents stained with DAPI. Coverslips were mounted with fluorescent mounting medium (DAKO). The cellular distribution of green fluorescence was determined in dual fluorescent cells using a Leica epifluorescent microscope.
Reintroducing PTEN function in such cells induces translocation of FKHR to the nucleus eventually causing G1 arrest in PTEN-null cells (Nakamura et al 2000, supra).

[3] = test system: human prostate tumor cells; conditions: in comparison to organic selenomethionine, methylselenocysteine or selenized yeast; cited from earlier work
PC-3 cells [4] = conditions: 0.25 mM, 54 hours
Protocol: BrdU Incorporation assays and immunofluorescence were carried out by plating 2.5×10^3 PC-3 cells and allowing them to attach overnight. […] Cells were incubated for a further 16 hours, then washed 3× in PBS and fixed in 4% PFA for 10 minutes at room temperature.
Mouse monoclonal anti-BrdU and antibodies were used as the primary antibodies and anti-mouse 488 Alexa, as the secondary antibodies. The percentage of cells incorporating BrdU was determined by counting the number of green staining nuclei per number of DAPI positive cells. 100 DAPI positive cells were counted per coverslip and the experiment performed in triplicate.

[5] = test system: human kidney epithelial Q293 cells; assay: Cell growth curve of Q293 cells, Trypan Blue; format: cell-based; conditions: selenate 5 μM, LY294002 10 μM, 9 days
Protocol: Q293 cells are a human kidney epithelial cell line routinely cultured in DMEM media (Invitrogen) in 5% foetal calf serum and 1% antibiotic/antimycotic mixture (Invitrogen).
as §2

PC-3 cells [6] = test system: PC-3 cells
Protocol: Cells were allowed to grow until the indicated time points, then harvested, washed in PBS and fixed in ice cold 70% ethanol for 15 minutes. Cells were washed with PBS and resuspended in PBS containing 40 μg/mL of propidum iodide (Sigma) and […] of RNase. DNA histograms were generated for each reading and the proportion of cells present in the G1 and G2/M peaks determined. Results were obtained for three independent experiments.

[7] = test system: androgen independent CSS LNCaP cells
Protocol: 5×10^4 human prostate cancer androgen independent CSS LNCaP cells were seeded in a 6-well dish and 8 hours later were treated with either 50 μM selenate or not (control).
as §1, §2

PC-3 cells [8] = conditions: 24-72 hours
Protocol: Analysis of PC-3 growth curves were achieved by allowing 2×10^5 PC-3 cells to attach overnight. […] Supernatants and cells were then harvested, combined and viable cells assessed by Trypan Blue exclusion assay. Experiments were performed in triplicate.

[9] = 50 μM, 72 hours, presence or absence of androgen

Structure (SMILES): O=[Se](=O)(O)O [sodium selenate]
- activation of Akt (phosphorylated Akt relative to total Akt) (Akt; 125 μM, 6 hours): inhibits activation of Akt
- activation of Akt at high dose (Akt; 500 μM, 1 hour): inhibited activation of Akt
- PC-3 cell proliferation (MTT proliferative index) (PC-3 cells [1]; 0.25 and 0.5 mM, 72 hour): markedly reduced
- proliferative inhibition with added LY294002 (PC-3 cells [1]; high dose sodium selenate plus LY294002, 72 hours): not enhanced by LY294002
- PC-3 cell number (MTT) (PC-3 cells [1]; lowest dose 0.01 mM): slight, but reproducible boost in cell number
- androgen sensitive NS LNCaP cell proliferation ([2]; absence of androgen (charcoal stripped serum)): synergizes with androgen ablation to markedly reduce
- androgen sensitive NS LNCaP cell proliferation ([2]; presence of androgen (normal serum)): markedly reduces
- parental LNCaP cell proliferation [2, 9]: synergizes with androgen ablation to reduce
- relocalization of GFP-FKHR from the cytoplasm to the nucleus (GFP-FKHR fusion protein): marked relocalization
- tumor progression [3]: significantly reduces tumor progression
- G1/S progression (BrdU/FrdU positive nuclei) (PC-3 cells [4]): severely impeded
- Q293 cell proliferation ([5]; CSS media (androgen ablation)): does not significantly effect
- Q293 cell proliferation ([5]; normal serum): does not significantly effect
- percentage of the cell population in G1 (PC-3 cells [6]; 0.25 and 0.5 mM, 24 hours, control 55%): 69-70%
- percentage of PC-3 cells at G2/M phase (PC-3 cells [6]; 48 hours): decreased
- percentage of the cell population in G1 (PC-3 cells [6]; 48 hours, dose- and time-dependent): increased
- percentage of cells at G2/M phase (PC-3 cells [6]; increasing concentrations (0.25, 0.5 mM), 24 hours, control 28%): 19% and 24%
- CSS LNCaP cell proliferation ([7]; 5 μM, 9 days, absence of androgen (charcoal stripped serum)): synergizes with androgen ablation to markedly reduce
- androgen independent CSS LNCaP cell proliferation ([7]; 5 μM, 9 days, presence of testosterone (normal serum)): markedly reduces
- sensitivity of androgen independent cells versus parental LNCaP cells ([7]; 50 μM, 72 hours): even more sensitive
- CSS LNCaP cell proliferation [7, 9]: synergizes with androgen ablation to reduce
- PC-3 cell number (PC-3 cells [8]; doses of 0.01 to 0.1 mM): rate of increase in cell number was impeded
- PC-3 cell number (PC-3 cells [8]; doses of 0.25 and 0.5 mM): all increases in cell number were blocked
